# Where two headings read alike, the source gives them in different places.
# Experiments:
# [1] = Biodistribution in mice bearing PC-3 xenografts; format: in vivo, Balb/c nu/nu mice; conditions: mouse, total radioactivity, PC-3 xenografted Balb/c nu/nu mice, iv 100 pmol, mean ± SD; for tissue uptake at 2 h / tissue uptake at 4 h / tissue uptake at 24 h: Balb/c nu/nu, iv; for tissue uptake at 4 h / tissue uptake dose at 4 h: 4 h pi; for tissue uptake at 24 h / tissue uptake dose at 24 h: 24 h pi
# Method: (§1) Each mouse was xenografted with a subcutaneous injection of 8 × 10⁶ PC-3 cells in the right hind leg. After approximately 4 weeks, the animals were injected into the tail vein with 100 µL of radiopeptide (100 pmol—110–130 kBq, diluted in PBS/BSA). Four animals were used for each time point per peptide. […] At the determined time points, the mice were euthanized, organs were collected and weighed, and their activity content was measured in the gamma counter. Results were presented as the percentage of injected activity per gram (%IA/g) for the collected organs, and the percentage of injected activity (%IA) for the gastrointestinal tract (GI) and the carcass. […] Statistical analysis was performed with GraphPad Prism 10 using two way ANOVA with Tuckey’s or Šidák’a post hoc analysis.
# PC-3 xenografts = assay: Biodistribution in mice bearing PC-3 xenografts; format: in vivo, Balb/c nu/nu mice; conditions: PC-3 xenografted mice, between 4 and 24 h pi
# Method: as §1
# [2] = In vivo stability: intact radiopeptide in peripheral mouse blood 5 min pi, radio-HPLC; conditions: for Percentage of intact peptide, Entresto: blood 5 min pi
# Method: Two animals per peptide were injected intravenously with a bolus of test radioligand (50 MBq, 2 nmol of peptide in 100 μL PBS/EtOH v/v 9:1) – Control group. To inhibit NEP, additional groups of two mice per compound were orally treated with 12 mg Entresto® (Novartis, Basel, Switzerland) 30 min before receiving the intravenous injection—Entresto group. Five minutes post-injection (pi), the animals were euthanized, and the blood was collected and immediately mixed with EDTA (0.1 mM, 40 μL) in Eppendorf tubes on ice. The mixture was spun at 2000 g for 10 min at 4 °C in an Eppendorf Centrifuge 5430 R (Eppendorf AG, Hamburg, Germany), and the plasma was collected and diluted with an equal volume of MeCN (4 °C). After a second centrifugation at 15,000 g and 4 °C for 10 min, the supernatant was collected in an Eppendorf tube and concentrated to 50–100 μL at 50 °C using a mild stream of N2. PBS was added to the samples to reach a final volume of 200 μL, and the solutions were filtered through a syringe filter (0.22 μm, 13 mm, VWR International, Radnor, USA). The filtered solution was analyzed by reversed-phase radio-HPLC to determine the percentage of intact peptides. The peak corresponding to the intact peptide was identified by injection of an aliquot of the labeling solution.
# PC-3 cells = assay: In vitro GRPR specificity assay (uptake with or without NOTA-PEG2-RM26 block); format: cell-based, human
# Method: After discarding the medium, the cells were washed with cold (4 °C) phosphate-buffered saline containing 1% w/v bovine serum albumin (PBS/BSA). The radiopeptides (Cf = 1 nM in 1 mL PBS/BSA) were added to all wells. A subset of wells was also treated with an excess of unlabeled GRPR-binding peptide NOTA-PEG2-RM26 (Bjäreback et al. [2025]) (Cf = 1 µM in 1 mL PBS/BSA) to block GRPR. After incubation for 1 h at 37 °C, the supernatant was removed, and the cells were washed and then collected by treating them with 1 M NaOH. The activity of the collected samples was measured with the gamma counter. This assay was performed in triplicate for each radiopeptide.
# [3] = blood, 100 pmol, n = 4, read-out: Blood activity uptake
# [4] = bone, 100 pmol, n = 4, read-out: Bone activity uptake
# [5] = kidneys, 100 pmol, n = 4, read-out: Kidneys activity uptake
# [6] = liver, 100 pmol, n = 4, read-out: Liver activity uptake
# [7] = lungs, 100 pmol, n = 4, read-out: Lungs activity uptake
# [8] = muscle, 100 pmol, n = 4, read-out: Muscle activity uptake
# [9] = pancreas, 100 pmol, n = 4, read-out: Pancreas activity uptake
# [10] = small intestine, 100 pmol, n = 4, read-out: Small Int. activity uptake
# [11] = spleen, 100 pmol, n = 4, read-out: Spleen activity uptake
# [12] = stomach, 100 pmol, n = 4, read-out: Stomach activity uptake
# [13] = tumor, 100 pmol, n = 4, read-out: Tumor activity uptake
# [14] = carcass, n = 4, read-out: Body activity uptake
# [15] = gastrointestinal tract with content, n = 4, read-out: GI activity uptake
structure (smiles),measurement,setting,value
"CC(C)C[C@H](NC(=O)C[C@H](O)[C@H](CC(C)C)NC(=O)[C@H](Cc1c[nH]cn1)NC(=O)CN(C)C(=O)[C@@H](NC(=O)[C@H](C)NC(=O)[C@](C)(Cc1c[nH]c2ccccc12)NC(=O)[C@H](CCC(N)=O)NC(=O)[C@@H](Cc1ccccc1)NC(=O)CN1CCC(NC(=O)COCCOCCNC(=O)CN2CCN(CC(=O)O)CCN(CC(=O)O)CCN(CC(=O)O)CC2)CC1)C(C)C)C(N)=O [[^177Lu]Lu-PKB3, metal not drawn]",tissue uptake at 2 h,"[1]; blood, 100 pmol, 2 h pi, n = 4, read-out: Blood activity uptake",0.22 ± 0.04 %ID/g
same,tissue uptake at 4 h,[1]; [3],0.09 ± 0.02 %ID/g
same,tissue uptake at 24 h,[1]; [3],0.02 ± 0.01 %ID/g
same,tissue uptake at 2 h,"[1]; blood, 2 h pi blocked (co-injected 100-fold molar excess NOTA-PEG2-RM26), n = 3, read-out: Blood activity uptake",0.13 ± 0.06 %ID/g
same,tissue uptake at 2 h,"[1]; bone, 100 pmol, 2 h pi, n = 4, read-out: Bone activity uptake",0.16 ± 0.03 %ID/g
same,tissue uptake at 4 h,[1]; [4],0.13 ± 0.04 %ID/g
same,tissue uptake at 24 h,[1]; [4],0.08 ± 0.03 %ID/g
same,tissue uptake at 2 h,"[1]; bone, 2 h pi blocked (co-injected 100-fold molar excess NOTA-PEG2-RM26), n = 3, read-out: Bone activity uptake",0.11 ± 0.03 %ID/g
same,tissue uptake at 2 h,"[1]; kidneys, 100 pmol, 2 h pi, n = 4, read-out: Kidneys activity uptake",7.4 ± 1 %ID/g
same,tissue uptake at 4 h,[1]; [5],5.9 ± 0.8 %ID/g
same,tissue uptake at 24 h,[1]; [5],4.3 ± 0.8 %ID/g
same,tissue uptake at 2 h,"[1]; kidneys, 2 h pi blocked (co-injected 100-fold molar excess NOTA-PEG2-RM26), n = 3, read-out: Kidneys activity uptake",5.4 ± 0.7 %ID/g
same,tissue uptake at 2 h,"[1]; liver, 100 pmol, 2 h pi, n = 4, read-out: Liver activity uptake",< 0.5 %ID/g
same,tissue uptake at 4 h,[1]; [6],0.42 ± 0.03 %ID/g
same,tissue uptake at 24 h,[1]; [6],0.24 ± 0.02 %ID/g
same,tissue uptake at 2 h,"[1]; liver, 2 h pi blocked (co-injected 100-fold molar excess NOTA-PEG2-RM26), n = 3, read-out: Liver activity uptake",0.38 ± 0.05 %ID/g
same,tissue uptake at 2 h,"[1]; lungs, 100 pmol, 2 h pi, n = 4, read-out: Lungs activity uptake",0.6 ± 0.3 %ID/g
same,tissue uptake at 4 h,[1]; [7],0.24 ± 0.08 %ID/g
same,tissue uptake at 24 h,[1]; [7],0.09 ± 0.01 %ID/g
same,tissue uptake at 2 h,"[1]; lungs, 2 h pi blocked (co-injected 100-fold molar excess NOTA-PEG2-RM26), n = 3, read-out: Lungs activity uptake",0.27 ± 0.03 %ID/g
same,tissue uptake at 2 h,"[1]; muscle, 100 pmol, 2 h pi, n = 4, read-out: Muscle activity uptake",0.09 ± 0.02 %ID/g
same,tissue uptake at 4 h,[1]; [8],0.1 ± 0.1 %ID/g
same,tissue uptake at 24 h,[1]; [8],0.02 ± 0.01 %ID/g
same,tissue uptake at 2 h,"[1]; muscle, 2 h pi blocked (co-injected 100-fold molar excess NOTA-PEG2-RM26), n = 3, read-out: Muscle activity uptake",0.07 ± 0.05 %ID/g
same,tissue uptake at 2 h,"[1]; pancreas, 100 pmol, 2 h pi, n = 4, read-out: Pancreas activity uptake",11.9 ± 2.1 %ID/g
same,tissue uptake at 4 h,[1]; [9],4.7 ± 0.4 %ID/g
same,tissue uptake at 24 h,[1]; [9],0.5 ± 0.2 %ID/g
same,tissue uptake at 2 h,"[1]; small intestine, 100 pmol, 2 h pi, n = 4, read-out: Small Int. activity uptake",2.2 ± 0.6 %ID/g
same,tissue uptake at 4 h,[1]; [10],1 ± 0.3 %ID/g
same,tissue uptake at 24 h,[1]; [10],0.11 ± 0.03 %ID/g
same,tissue uptake at 2 h,"[1]; small intestine, 2 h pi blocked (co-injected 100-fold molar excess NOTA-PEG2-RM26), n = 3, read-out: Small Int. activity uptake",0.7 ± 0.3 %ID/g
same,tissue uptake at 2 h,"[1]; spleen, 100 pmol, 2 h pi, n = 4, read-out: Spleen activity uptake",0.4 ± 0.2 %ID/g
same,tissue uptake at 4 h,[1]; [11],0.25 ± 0.07 %ID/g
same,tissue uptake at 24 h,[1]; [11],0.16 ± 0.06 %ID/g
same,tissue uptake at 2 h,"[1]; spleen, 2 h pi blocked (co-injected 100-fold molar excess NOTA-PEG2-RM26), n = 3, read-out: Spleen activity uptake",0.13 ± 0.02 %ID/g
same,tissue uptake at 2 h,"[1]; stomach, 100 pmol, 2 h pi, n = 4, read-out: Stomach activity uptake",2.5 ± 0.2 %ID/g
same,tissue uptake at 4 h,[1]; [12],1.9 ± 0.3 %ID/g
same,tissue uptake at 24 h,[1]; [12],0.16 ± 0.05 %ID/g
same,tissue uptake at 2 h,"[1]; stomach, 2 h pi blocked (co-injected 100-fold molar excess NOTA-PEG2-RM26), n = 3, read-out: Stomach activity uptake",0.6 ± 0.1 %ID/g
same,tissue uptake at 2 h,"[1]; tumor, 100 pmol, 2 h pi, n = 4, read-out: Tumor activity uptake",23.8 ± 2.5 %ID/g
same,tissue uptake at 4 h,[1]; [13],18.8 ± 0.7 %ID/g
same,tissue uptake at 24 h,[1]; [13],15.3 ± 2.7 %ID/g
same,tissue uptake at 2 h,"[1]; tumor, 2 h pi blocked (co-injected 100-fold molar excess NOTA-PEG2-RM26), n = 3, read-out: Tumor activity uptake",3.4 ± 0.3 %ID/g
same,tissue uptake dose at 2 h,"[1]; carcass, 2 h pi, n = 4, read-out: Body activity uptake",2.7 ± 0.8 %ID
same,tissue uptake dose at 4 h,[1]; [14],2.2 ± 0.4 %ID
same,tissue uptake dose at 24 h,[1]; [14],1.1 ± 0.7 %ID
same,tissue uptake dose at 2 h,"[1]; gastrointestinal tract with content, 2 h pi, n = 4, read-out: GI activity uptake",2 ± 0.2 %ID
same,tissue uptake dose at 4 h,[1]; [15],0.4 ± 0.3 %ID
same,tissue uptake dose at 24 h,[1]; [15],0.16 ± 0.03 %ID
same,tumor retention of activity,PC-3 xenografts,around 80%
same,"Percentage of intact peptide, Entresto","[2]; NMRI mice, 12 mg Entresto orally 30 min before injection, recorded value n1",90% [90% - 90%]
same,"Percentage of intact peptide, Entresto","[2]; NMRI mice, 12 mg Entresto orally 30 min before injection, recorded value n2",90% [90% - 90%]
same,"Percentage of intact peptide, Entresto","[2]; healthy NMRI mice, 12 mg Entresto orally 30 min before iv injection (NEP inhibition), radio-HPLC, mean of n = 2",90% [90% - 90%]
same,"Percentage of intact peptide, Control","[2]; healthy NMRI mice, iv 50 MBq, 2 nmol, peripheral blood 5 min pi, radio-HPLC, mean of n = 2",91% [88% - 94%]
same,in vitro binding specificity,"PC-3 cells; 1 nM radiopeptide, 1 h at 37 °C, block with 1 µM NOTA-PEG2-RM26, n = 3",GRPR-mediated activity uptake
same,total cellular activity uptake (rank among the three radiopeptides),"PC-3 cells; 1 nM, 37 °C, n = 3",highest
